Publication PMC9851200, “Multiparameter phenotypic screening for endogenous TFEB and TFE3 translocation identifies novel chemical series modulating lysosome function” (Autophagy, 2022)

Assays:
endogenous TFEB = assay: TFEB nuclear translocation, immunocytochemistry high-content imaging; format: cell-based; conditions: PKIS2 primary screening
endogenous TFE3 = assay: TFE3 nuclear translocation, immunocytochemistry high-content imaging; format: cell-based; conditions: PKIS2 primary screening
SH-SY5Y cells [1] = conditions: PKIS2 primary screening; for DQ Intensity: DQ Red BSA intensity; for DQ Spot: DQ Red BSA spot count
From the text: The PKIS2 Library was supplied by The Structural Genomics Consortium at the University of North Carolina at Chapel Hill.

SH-SY5Y cells [2] = assay: AK (adenylate kinase) release ToxiLight cytotoxicity assay; conditions: PKIS2 primary screening; further: reference of the scale not given here
SH-SY5Y cells [3] = assay: Nuclear count from microscopy images (cellular growth and toxicity); conditions: PKIS2 primary screening; further: reference of the scale not given here
Wherever DQ Intensity is given: reference of the scale not given here.
Wherever DQ Spot is given: reference of the scale not given here.

Compound | TFEB % (endogenous TFEB) | TFE3 % (endogenous TFE3) | DQ Intensity (SH-SY5Y cells [1]) | DQ Spot (SH-SY5Y cells [1]) | AK (SH-SY5Y cells [2]) | Nuclear Count (SH-SY5Y cells [3])
COc1cccc(NC(=O)NC2CCN(c3ccnc(Nc4cc(OC)c(OC)c(OC)c4)n3)C2)c1 (stereo not drawn) [GSK1379763] | 4.72% | 18.80% | 128.42 | 124.42 | 111.80 | 90.02
COc1cccc(CNC(=O)NC2CCN(c3ccnc(Nc4cc(OC)c(OC)c(OC)c4)n3)C2)c1 (stereo not drawn) [GSK1379765] | 3.20% | 15.97% | 73.44 | 97.23 | 74.87 | 98.25
COc1cc(Nc2nccc(N3CCC(NC(=O)Nc4ccc5c(c4)OCO5)C3)n2)cc(OC)c1OC (stereo not drawn) [GSK1379766] | 4.47% | 9.31% | 63.32 | 78.55 | 118.87 | 95.41
COC(=O)c1cccc(NC(=O)NC2CCN(c3ccnc(Nc4cc(OC)c(OC)c(OC)c4)n3)C2)c1 (stereo not drawn) [GSK1379767] | 5.97% | 6.50% | 85.74 | 95.59 | 115.43 | 122.32
COc1ccc(CNC(=O)NC2CCN(c3ccnc(Nc4ccc(F)cc4)n3)CC2)cc1 [GSK1379788] | 3.80% | 14.89% | 86.32 | 97.11 | 114.99 | 82.62
O=C(Nc1ccccc1F)NC1CCN(c2ccnc(Nc3ccc(F)cc3)n2)CC1 [GSK1379800] | 6.86% | 9.18% | 95.32 | 97.06 | 198.42 | 118.12
COc1ccc(Nc2nccc(N3CCC(NC(=O)C(C)c4ccc(Cl)cc4)CC3)n2)cc1 (stereo not drawn) [GSK1379812] | 5.92% | 16.53% | 134.37 | 89.99 | 91.65 | 97.15
COc1cc(Nc2nccc(N3CCC(NS(=O)(=O)c4ccc(NC(C)=O)cc4)CC3)n2)cc(OC)c1OC [GSK1379825] | 12.82% | 12.08% | 96.24 | 89.82 | 75.82 | 107.84
O=C(Nc1ccc2c(c1)OCO2)NC1CCN(c2ccnc(NCc3ccc(F)cc3)n2)CC1 [GSK1379859] | 6.05% | 12.41% | 77.50 | 79.61 | 102.69 | 98.68
COC(=O)c1cccc(NC(=O)NC2CCN(c3ccnc(NCc4ccc(F)cc4)n3)CC2)c1 [GSK1379860] | 6.34% | 10.41% | 146.32 | 93.58 | 178.25 | 118.43
O=C(NCCNc1ccnc(Nc2ccc(F)cc2)n1)c1cc2ccccc2s1 [GSK1379874] | 5.88% | 18.78% | 94.35 | 110.46 | 71.16 | 89.16
Cc1ccc(C)c(NC(=O)NCCNc2ccnc(Nc3ccc(F)cc3)n2)c1 [GSK1379878] | 8.11% | 7.01% | 136.83 | 104.85 | 103.06 | 85.48
COc1cccc(NC(=O)NCCNc2ccnc(Nc3ccc(F)cc3)n2)c1 [GSK1379879] | 4.69% | 16.07% | 127.01 | 112.84 | 80.56 | 93.19
O=C(NCCNc1ccnc(Nc2ccc(F)cc2)n1)Nc1ccccc1F [GSK1379880] | 3.19% | 7.81% | 104.78 | 97.82 | 82.91 | 133.27
O=C(NCCNc1ccnc(Nc2ccc(F)cc2)n1)Nc1ccc2c(c1)OCO2 [GSK1379882] | 4.46% | 17.40% | 52.40 | 79.77 | 105.11 | 67.71
COC(=O)c1cccc(NC(=O)NCCNc2ccnc(Nc3ccc(F)cc3)n2)c1 [GSK1379883] | 8.27% | 3.78% | 102.62 | 95.44 | 105.04 | 115.63
COc1ccc(Nc2nccc(NCCNC(=O)c3cc4ccccc4s3)n2)cc1 [GSK1379896] | 5.04% | 17.76% | 100.56 | 107.99 | 100.12 | 88.87
COc1ccc(Nc2nccc(NCCNC(=O)Nc3cc(C)ccc3C)n2)cc1 [GSK1379899] | 7.12% | 15.31% | 123.56 | 108.96 | 79.47 | 88.82
COc1ccc(Nc2nccc(NCCNC(=O)Nc3ccccc3F)n2)cc1 [GSK1379901] | 13.61% | 12.56% | 112.97 | 125.52 | 100.88 | 49.37
O=C(NCCNc1ccnc(NCc2ccc(F)cc2)n1)c1cc2ccccc2s1 [GSK1379944] | 8.85% | 12.27% | 122.34 | 117.48 | 378.86 | 79.28
Cc1cc(-c2ccnc(Nc3cccc(C#N)c3)n2)cc(C)c1O [GSK1440913] | 7.49% | 21.61% | 63.54 | 78.51 | 97.58 | 76.93
CNC(=O)c1ccccc1Nc1nc(Nc2cccc(CS(C)(=O)=O)c2)ncc1C [GSK1520489] | 10.40% | 10.71% | 192.20 | 118.45 | 149.13 | 38.33
COc1ccc(Nc2ncc(C#N)c(Nc3ccccc3C(N)=O)n2)cc1N1CCN(C)CC1 [GSK1558669] | 5.16% | 11.88% | 142.11 | 120.07 | 96.14 | 62.25
CNC(=O)c1ccccc1Nc1nc(Nc2ccc(N3CCOCC3)cc2)ncc1Cl [GSK1576028] | 42.50% | 5.85% | 165.31 | 111.32 | 149.21 | 15.51
Cc1cc(N2CCC(NS(=O)(=O)c3ccc(F)cc3)CC2)nc(Nc2cccc(C#N)c2)n1 [GSK1653537] | 10.28% | 18.21% | 104.60 | 98.84 | 183.29 | 84.44
COc1ccc(S(=O)(=O)NC2CCN(c3cc(C)nc(Nc4cccc(C#N)c4)n3)CC2)cc1 [GSK1653539] | 5.30% | 12.26% | 59.46 | 82.66 | 67.09 | 97.37
Cc1cc(N2Cc3ccccc3C2)nc(Nc2ccc(S(=O)(=O)N3CCOCC3)cc2)n1 [GSK1669917] | 1.55% | 8.23% | 64.14 | 76.32 | 117.66 | 138.98
